Patent US9835629B2, “Methods and reagents for biomolecule labeling, enrichment and gentle elution” (Pierce Biotechnology, Inc., priority 2012, dated 2017)

Key:
anti-TMT™ antibody [1] = assay: surface plasmon resonance competitive elution of anti-TMT antibody bound to a TMT-labeled surface; type: binding, mice; conditions: washing in μM to mM concentrations, room temperature
Description: (§1) As the protein is labeled at nearly all amine sites, more sites on the protein are likely bound to the resin and more competitor reagent is necessary to elute the bound protein (FIG. 3B).
For total cysteine alkylation, cell lysates and purified proteins were denatured, reduced, and labeled with excess iodoTMTzero or iodoTMTsixplex reagents prior to enzymatic digestion. For cysteine S-nitrosylation quantitation, samples were treated with nitrosylation donor agents (e.g. GSH-NO) and alkylated with methyl methanethiosulfonate (MMTS) to block unmodified sulfhydryl groups. […] An anti-TMT antibody resin was used for labeled peptide enrichment. Peptide samples were analyzed using a Thermo Scientific LTQ™ ORBITRAP XL mass spectrometer. Data were analyzed using Thermo Scientific PROTEOME DISCOVERER 1.3 software. Elution buffer was evaluated by surface plasmon resonance (SPR) using a TMT-derivatized CM5 chip on a GE Healthcare BIACORE 3000 instrument.

Anti-TMT™ antibody resin = assay: elution of TMT-labeled protein from anti-TMT antibody resin; design: species or system mice; conditions: micromolar to millimolar, intact protein labeled with amine-reactive TMT
From the text: as §1

[2] = tested on: anti-TMT immobilized antibody resin; assay: elution of iodoTMT-labeled peptides of a cell lysate from anti-TMT resin, LC-MS/MS; design: species or system mice
Description: Peptides were washed with Tris buffered saline (TBS), […] detergent (Waters), or CHAPS detergent and eluted with 0.4% trifluoracetic acid (pH about 2), or washed with TBS and water prior to elution with DMP at the indicated concentrations and pH. Eluted peptides were analyzed by LC-MS/MS on a Thermo Scientific ORBITRAP XL and data was interpreted with Thermo Scientific PROTEOME DISCOVERER 1.3 to identify the eluted peptides and the number of iodoTMT labeled peptides specifically eluted (percentage shown above each bar). In FIG. 4B, a cell lysate was S-nitrosylated in vitro with nitroglutathione, the free thiols were irreversibly alkylated with iodoacetamide, the nitroso groups were reduced and selectively released with ascorbic acid, the newly exposed cysteines were irreversibly alkylated with iodoTMT, and the samples were then reduced to remove disulfide linkages, alkylated with iodoacetamide, and digested with trypsin. These peptide samples were enriched with the anti-TMT antibody, and samples of the load, the flowthrough, and the non-specific and specific elutions were assessed for peptide recovery and specificity.
Cell lysates were labeled with an irreversible cysteine-reactive iodoacetyl TMT® reagent, digested, and then captured with the anti-TMT™ resin. The bound peptides were eluted non-specifically with different pH and detergent conditions or specifically with different concentrations and pH of DMP elution reagent (FIG. 4A). […] As DMP is not a biological molecule, there is no interference from endogenous levels. In contrast, biotinylated molecules are more difficult to recover and may result in the enrichment of interfering endogenously biotinylated molecules.

anti-TMT™ antibody [3] = assay: enrichment and elution of S-nitrosylated, iodoTMT-labeled peptides with anti-TMT antibody; design: species or system mice; conditions: in vitro S-nitrosylated cell lysate
Description: Peptides were washed with Tris buffered saline (TBS), […] detergent (Waters), or CHAPS detergent and eluted with 0.4% trifluoracetic acid (pH about 2), or washed with TBS and water prior to elution with DMP at the indicated concentrations and pH. Eluted peptides were analyzed by LC-MS/MS on a Thermo Scientific ORBITRAP XL and data was interpreted with Thermo Scientific PROTEOME DISCOVERER 1.3 to identify the eluted peptides and the number of iodoTMT labeled peptides specifically eluted (percentage shown above each bar). […] These peptide samples were enriched with the anti-TMT antibody, and samples of the load, the flowthrough, and the non-specific and specific elutions were assessed for peptide recovery and specificity.
The cysteine-reactive […] tags and affinity enrichment reagents are used for the enrichment, detection, and quantification of low abundance protein modifications. […] These peptide samples were then enriched with the anti-TMT™ antibody, and a sample of the load, the flowthrough, and the non-specific and specific elutions were assessed for peptide recovery and specificity (FIG. 4B). […]
For total cysteine alkylation, cell lysates and purified proteins were denatured, reduced, and labeled with excess iodoTMTzero or iodoTMTsixplex reagents prior to enzymatic digestion. […] Peptide samples were analyzed using a Thermo Scientific LTQ™ ORBITRAP XL mass spectrometer. […]

[4] = iodoacetyl TMT-labeled cell lysate peptides

Structure (SMILES): C[C@@H]1CCC[C@H](C)N1 [DMP, cis-2,6-dimethyl piperidine]
- elution of bound anti-TMT antibody from TMT-labeled surface (anti-TMT™ antibody [1]): elutes bound antibody within minutes
- elution of bound TMT-labeled protein from anti-TMT antibody resin (Anti-TMT™ antibody resin): efficiently eluted
- elution efficiency at high pH ([2]; 10 mM, high pH): even more efficient
- specificity of elution at high pH ([2]; 10 mM, high pH): lower specificity of elution
- number of peptides eluted versus non-specific elution conditions [2, 4]: over 100 times
- specificity of elution [2, 4]: greater than 90%
- more peptides yielded than a low pH elution (anti-TMT™ antibody [3]; specific elution): approximately 50%
- specificity of the enrichment of iodoTMT-labeled peptides (anti-TMT™ antibody [3]; specific elution (6% with low pH elution)): 21%
